Measured values: PubChem BioAssay AID1963420 (Molecular Pharmacology Branch, DTP, NCI, 2024)
Where “and” joins values, the source holds several entries; their conditions need not be identical. Equal entries are not always repeated.

Tested on: 494315-158-R-J1-PDC complex spheroid growth, percent test/control
Test: Anticancer human tumor 494315-158-R-J1-PDC patient-derived soft tissue sarcoma cell line growth inhibition [Asc]
Conditions: for viability, T/C: stronger effect = lower value; active = viability on the fitted dose curve at most 10% of control; inactive = the rest
Procedure, shortened: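 Spheroid model: tumor line + HUVEC + hMSC. Single agents and combinations; top conc. at/near clinical Cmax (10 microM if undetermined), half-log dilutions. DMSO stocks at 800-fold test concentration.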

[1] = curve of first compound, second compound 0.03 µM
[2] = curve of first compound, second compound 0.0949 µM
[3] = curve of first compound, second compound 0.3 µM
[4] = curve of first compound, second compound 0.949 µM
[5] = curve of first compound, second compound 3 µM
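Also: compound exposure lasted seven days after spheroids formed for three days.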

C=CC(=O)N1CCN(c2nc(=O)n(-c3c(C)ccnc3C(C)C)c3nc(-c4c(O)cccc4F)c(F)cc23)C(C)C1 (stereo not given) + CCN1C(C(=O)NC23CCC(C(=O)O)(CC2)CC3)C(c2cccc(Cl)c2F)C2(C(=O)Nc3cc(Cl)ccc32)C12CCCCC2
> 10000 nM: IC50 [1] | IC50 [2] | IC50 [3] | IC50 [4] | IC50 [5]
inactive: viability, T/C (second compound 0.03 µM, first compound 0.0316 µM) 111% | viability, T/C (second compound 0.03 µM, first compound 0.1 µM) 97.2% | viability, T/C (second compound 0.03 µM, first compound 0.316 µM) 119% | viability, T/C (second compound 0.03 µM, first compound 1 µM) 128% | viability, T/C (second compound 0.03 µM, first compound 3.16 µM) 128% | viability, T/C (second compound 0.03 µM, first compound 10 µM) 104% | viability, T/C (second compound 0.0949 µM, first compound 0.0316 µM) 90.4% | viability, T/C (second compound 0.0949 µM, first compound 0.1 µM) 96.8% | viability, T/C (second compound 0.0949 µM, first compound 0.316 µM) 96.3% | viability, T/C (second compound 0.0949 µM, first compound 1 µM) 110% | viability, T/C (second compound 0.0949 µM, first compound 3.16 µM) 92.8% | viability, T/C (second compound 0.0949 µM, first compound 10 µM) 99.9% | viability, T/C (second compound 0.3 µM, first compound 0.0316 µM) 97.6% | viability, T/C (second compound 0.3 µM, first compound 0.1 µM) 119% | viability, T/C (second compound 0.3 µM, first compound 0.316 µM) 111% | viability, T/C (second compound 0.3 µM, first compound 1 µM) 119% | viability, T/C (second compound 0.3 µM, first compound 3.16 µM) 114% | viability, T/C (second compound 0.3 µM, first compound 10 µM) 117% | viability, T/C (second compound 0.949 µM, first compound 0.0316 µM) 85.5% | viability, T/C (second compound 0.949 µM, first compound 0.1 µM) 114% | viability, T/C (second compound 0.949 µM, first compound 0.316 µM) 106% | viability, T/C (second compound 0.949 µM, first compound 1 µM) 108% | viability, T/C (second compound 0.949 µM, first compound 3.16 µM) 130% | viability, T/C (second compound 0.949 µM, first compound 10 µM) 110% | viability, T/C (second compound 3 µM, first compound 0.0316 µM) 102% | viability, T/C (second compound 3 µM, first compound 0.1 µM) 96.9% | viability, T/C (second compound 3 µM, first compound 0.316 µM) 97.9% | viability, T/C (second compound 3 µM, first compound 1 µM) 113% | viability, T/C (second compound 3 µM, first compound 3.16 µM) 126% | viability, T/C (second compound 3 µM, first compound 10 µM) 104%

CCN1C(C(=O)NC23CCC(C(=O)O)(CC2)CC3)C(c2cccc(Cl)c2F)C2(C(=O)Nc3cc(Cl)ccc32)C12CCCCC2 (stereo not given)
> 3000 nM: IC50 (compound alone, run of 09/27/2022) | IC50 (curve of compound)
inactive: viability, T/C (compound 0.00949 µM) 86.2% and 96.4%

O=C(c1cc(Cc2n[nH]c(=O)c3ccccc23)ccc1F)N1CCN(C(=O)C2CC2)CC1
> 10000 nM: IC50 (curve of compound)
inactive: viability, T/C (compound 0.0316 µM) 83.7% and 85.7% and 88.2% | viability, T/C (compound 0.1 µM) 101% and 95% and 86.5% | viability, T/C (compound 0.316 µM) 76.7% and 88.8% and 89.9% | viability, T/C (compound 1 µM) 83.8% and 84.5% and 81.4% | viability, T/C (compound 3.16 µM) 69.5% and 85.8% and 85.3% | viability, T/C (compound 10 µM) 52.3% and 55.7% and 50%

NC(=O)C(=Cn1cnc(-c2cc(C(F)(F)F)cc(C(F)(F)F)c2)n1)c1cncnc1 + CCN1C(C(=O)NC23CCC(C(=O)O)(CC2)CC3)C(c2cccc(Cl)c2F)C2(C(=O)Nc3cc(Cl)ccc32)C12CCCCC2
inactive: viability, T/C (second compound 0.03 µM, first compound 0.000949 µM) 97% | viability, T/C (second compound 0.03 µM, first compound 0.003 µM) 107% | viability, T/C (second compound 0.03 µM, first compound 0.00949 µM) 84.9% | viability, T/C (second compound 0.03 µM, first compound 0.03 µM) 78.3% | viability, T/C (second compound 0.03 µM, first compound 0.0949 µM) 41% | viability, T/C (second compound 0.03 µM, first compound 0.3 µM) 17.4% | viability, T/C (second compound 0.0949 µM, first compound 0.000949 µM) 96.6% | viability, T/C (second compound 0.0949 µM, first compound 0.003 µM) 96.4% | viability, T/C (second compound 0.0949 µM, first compound 0.00949 µM) 81.6% | viability, T/C (second compound 0.0949 µM, first compound 0.03 µM) 64.4% | viability, T/C (second compound 0.0949 µM, first compound 0.0949 µM) 35.5% | viability, T/C (second compound 0.0949 µM, first compound 0.3 µM) 16.8% | viability, T/C (second compound 0.3 µM, first compound 0.000949 µM) 96.6% | viability, T/C (second compound 0.3 µM, first compound 0.003 µM) 88% | viability, T/C (second compound 0.3 µM, first compound 0.00949 µM) 97.6% | viability, T/C (second compound 0.3 µM, first compound 0.03 µM) 74.8% | viability, T/C (second compound 0.3 µM, first compound 0.0949 µM) 40.4% | viability, T/C (second compound 0.3 µM, first compound 0.3 µM) 17.5% | viability, T/C (second compound 0.949 µM, first compound 0.000949 µM) 98.2% | viability, T/C (second compound 0.949 µM, first compound 0.003 µM) 89.3% | viability, T/C (second compound 0.949 µM, first compound 0.00949 µM) 80.6% | viability, T/C (second compound 0.949 µM, first compound 0.03 µM) 70.8% | viability, T/C (second compound 0.949 µM, first compound 0.0949 µM) 43.4% | viability, T/C (second compound 0.949 µM, first compound 0.3 µM) 19.1% | viability, T/C (second compound 3 µM, first compound 0.000949 µM) 102% | viability, T/C (second compound 3 µM, first compound 0.003 µM) 103% | viability, T/C (second compound 3 µM, first compound 0.00949 µM) 95.6% | viability, T/C (second compound 3 µM, first compound 0.03 µM) 81% | viability, T/C (second compound 3 µM, first compound 0.0949 µM) 44% | viability, T/C (second compound 3 µM, first compound 0.3 µM) 13.6%
68.7 nM: IC50 [3]
72.6 nM: IC50 [1]
74.9 nM: IC50 [4]
79.1 nM: IC50 [5]
52.4 nM: IC50 [2]

C=C(F)C(=O)N1CCN(c2nc(OCC3CCCN3C)nc3c2CCN(c2cccc4cccc(Cl)c24)C3)CC1CC#N (stereo not given) + Cc1c(S(C)(=O)=O)c(-c2cc(F)cc(N3CCN(c4ccc(NS(=O)(=O)c5ccc(NC(CCN6CCC(C(=O)OCCCP(=O)(O)O)CC6)CSc6ccccc6)c(S(=O)(=O)C(F)(F)F)c5)cc4)CC3)c2)c(-c2ccc(Cl)cc2)n1C(C)C
1370 nM: IC50 (curve of first compound, second compound 1 µM)
active: viability, T/C (second compound 0.1 µM, first compound 10 µM) 0.16% | viability, T/C (second compound 0.316 µM, first compound 10 µM) 0.14% | viability, T/C (second compound 1 µM, first compound 10 µM) 0.12% | viability, T/C (second compound 3.16 µM, first compound 10 µM) 0.15% | viability, T/C (second compound 10 µM, first compound 10 µM) 0.24%
1810 nM: IC50 (curve of first compound, second compound 0.1 µM)
1470 nM: IC50 (curve of first compound, second compound 10 µM)
1340 nM: IC50 (curve of first compound, second compound 0.316 µM)
367 nM: IC50 (curve of first compound, second compound 3.16 µM)
inactive: viability, T/C (second compound 0.1 µM, first compound 0.0316 µM) 77.7% | viability, T/C (second compound 0.1 µM, first compound 0.1 µM) 79.6% | viability, T/C (second compound 0.1 µM, first compound 0.316 µM) 71.8% | viability, T/C (second compound 0.1 µM, first compound 1 µM) 73.7% | viability, T/C (second compound 0.1 µM, first compound 3.16 µM) 27.8% | viability, T/C (second compound 0.316 µM, first compound 0.0316 µM) 73.5% | viability, T/C (second compound 0.316 µM, first compound 0.1 µM) 72.7% | viability, T/C (second compound 0.316 µM, first compound 0.316 µM) 75.1% | viability, T/C (second compound 0.316 µM, first compound 1 µM) 57% | viability, T/C (second compound 0.316 µM, first compound 3.16 µM) 25.6% | viability, T/C (second compound 1 µM, first compound 0.0316 µM) 64.3% | viability, T/C (second compound 1 µM, first compound 0.1 µM) 67% | viability, T/C (second compound 1 µM, first compound 0.316 µM) 65.5% | viability, T/C (second compound 1 µM, first compound 1 µM) 61.1% | viability, T/C (second compound 1 µM, first compound 3.16 µM) 20.6% | viability, T/C (second compound 3.16 µM, first compound 0.0316 µM) 55.9% | viability, T/C (second compound 3.16 µM, first compound 0.1 µM) 53.4% | viability, T/C (second compound 3.16 µM, first compound 0.316 µM) 47.8% | viability, T/C (second compound 3.16 µM, first compound 1 µM) 41.1% | viability, T/C (second compound 3.16 µM, first compound 3.16 µM) 11.1% | viability, T/C (second compound 10 µM, first compound 0.0316 µM) 75.8% | viability, T/C (second compound 10 µM, first compound 0.1 µM) 78.5% | viability, T/C (second compound 10 µM, first compound 0.316 µM) 73.5% | viability, T/C (second compound 10 µM, first compound 1 µM) 65.3% | viability, T/C (second compound 10 µM, first compound 3.16 µM) 20%
